Where a name gives a salt, the structure may show the parent alone.

For `CCC1=C(C(N)=O)C(c2ccc([N+](=O)[O-])cc2)C(C(=O)NCCCN2CCC3(CC2)C(=O)NCN3c2ccccc2)=C(CC)N1` (stereo not shown) (as salt: hydrochloride) (hydrate or solvate) [Example 105, 5-Carboxamido-2,6-diethyl-1,4-dihydro-4-(4-nitrophenyl)-3-{N-[3-(1-phenyl-4-oxo-1,3,8-triazaspiro[4.3]decan-8-yl)propyl]}carboxamidopyridine hydrochloride hydrate], the melting point was 187 °C (dec.).
To `CCNC(=O)C1=C(C)NC(C)=C(C(=O)NCCCN2CCC(C(=O)OC)(c3ccccc3)CC2)C1c1ccc([N+](=O)[O-])cc1` (stereo not shown) [Example 205, 1,4-Dihydro-2,6-dimethyl-5-(N-ethyl)carboxamido-3-{N-[3-(4-methoxycarbonyl-4-phenylpiperidin-1-yl)propyl]}carboxamido-4-(4-nitrophenyl)pyridine] belongs 117 to 118 °C; to `COc1ccc(C2(c3ccccc3)CCN(CCCNC(=O)C3=C(C)NC(C)=C(C(N)=O)C3c3ccc([N+](=O)[O-])cc3)CC2)cc1` (stereo not shown) (as salt: hydrochloride) [Example 98, 5-Carboxamido-1,4-dihydro-3-{N-[3-(4-(4-methoxyphenyl)-4-phenylpiperidin-1-yl)propyl]}carboxamido-2,6-dimethyl-4-(4-nitrophenyl)pyridine hydrochloride], 185 °C (dec.).
As to `CCC1=C(C(=O)NCCCN2CCC(c3ccccc3)(c3ccccc3)CC2)C(c2ccc([N+](=O)[O-])cc2)C(C(=O)NC)=C(COCCN=[N+]=[N-])N1` (stereo not shown) (as salt: hydrochloride) [Example 151, 2-((2-Azidoethyl)oxy)methyl-6-ethyl-1,4-dihydro-3-(N-methyl)carboxamido-4-(4-nitro)phenyl-5-(N-(3-(4,4-diphenylpiperidin-1-yl)propyl))carboxamidopyridine], the melting point is 200 °C (dec.).
`COC(=O)C1=C(C)NC(C)=C(C(=O)OCCCN2CCCCC2)C1c1ccc([N+](=O)[O-])cc1` (stereo not shown) (as salt: hydrochloride) (hydrate or solvate) [Example 50, 1,4-Dihydro-5-methoxycarbonyl-2,6-dimethyl-4-(4-nitrophenyl)-3-[3-(piperidin-1-yl)propoxy]carbonylpyridine hydrochloride etherate]: the melting point is 128 to 129 °C.
Under `CCC1=C(C(=O)NCCCN2CCC(c3ccccc3)(c3ccccc3)CC2)C(c2ccc(N)cc2)C(C(=O)OC)=C(C)N1` (stereo not shown) (as salt: salt) [Example 114, 4-(4-Aminophenyl)-2-ethyl-1,4-dihydro-5-methoxycarbonyl-6-methyl-3-(N-(3-(4,4-diphenylpiperidin-1-yl)propyl)carboxamido)-pyridine] stands 169 to 172 °C (dec.); under `CCC1=C(C(=O)NCCCN2CCC(c3ccccc3)CC2)C(c2ccc([N+](=O)[O-])cc2)C(C(=O)OC)=C(C)N1` (stereo not shown) (as salt: hydrochloride) (hydrate or solvate) [Example 74, 2-Ethyl-1,4-dihydro-5-methoxycarbonyl-6-methyl-4-(4-nitro)phenyl-3-(N-(3-(4-phenylpiperidin-1-yl)propyl)) carboxamidopyridine hydrochloride hydrate], 209 to 214 °C (dec.); under `COC(=O)C1=C(C)NC(c2ccccc2)=C(C(=O)NCCCN2CCC(c3ccccc3)(c3ccccc3)CC2)C1c1ccc([N+](=O)[O-])cc1` (stereo not shown) (as salt: hydrochloride) (hydrate or solvate) [Example 78, 1,4-Dihydro-5-methoxycarbonyl-6-methyl-4-(4-nitro)phenyl-2-phenyl-3-(N-(3-(4,4-diphenylpiperidin-1-yl)propyl))carboxamidopyridine hydrochloride hydrate], 210 to 215 °C (dec.).
To `CCOC(=O)C1(c2ccccc2)CCN(CCCNC(=O)C2=C(C)NC(C)=C(C(=O)NC)C2c2ccc([N+](=O)[O-])cc2)CC1` (stereo not shown) [Example 188, 1,4-Dihydro-2,6-dimethyl-3-{N-[3-(4-ethoxycarbonyl-4-phenyl-piperidin-1-yl)propyl]}carboxamide-5-(N-methyl)carboxam ido-4-(4nitrophenyl)pyridine] belongs 112 to 113 °C; to `CC1=C(C(N)=O)C(c2ccc([N+](=O)[O-])cc2)C(C(=O)NCCN2CCC(c3ccccc3)(c3ccccc3)CC2)=C(C)N1` (stereo not shown) (as salt: hydrochloride) (hydrate or solvate) [Example 54, 5-Carboxamide-1,4-dihydro-2,6-dimethyl-4-(4-nitrophenyl)-3-{N-[2-(4,4-diphenylpiperidin-1-yl)ethyl]}carboxamidopyridine hydrochloride hydrate], 193 to 194 °C; to `COC(=O)C1=C(C)NC(C)=C(C(=O)OCCCN2CCC(c3ccccc3)CC2)C1c1ccc([N+](=O)[O-])cc1` (stereo not shown) (as salt: hydrochloride) (hydrate or solvate) [Example 48, 1,4-Dihydro-5-methazycarbonyl-2,6-dimethyl-4-(4-nitrophenyl)-3-[3-(4-phenylpiperidin-1-yl)propoxy]}carbonylpyridine hydrochloride hydrate], 139 to 140 °C.
Compound `COC(=O)C1=C(C)NC(C)=C(C(=O)NCCCN2CCc3cc(OC)c(OC)cc3C2)C1c1ccc([N+](=O)[O-])cc1` (stereo not shown) (as salt: hydrochloride) (hydrate or solvate) [Example 57, 1,4-Dihydro-3-methoxycarbonyl-5-{N-[3-(1,2,3,4-tetrahydro-6,7-dimethoxyisoquinolin-2-yl)propyl]}carboxamido-2,6-dimethyl-4-(4-nitrophenyl)pyridine hydrochloride hydrate] gave a melting point of 161 to 162 °C.
Under `COC(=O)C1=C(C)NC(c2ccoc2)=C(C(=O)NCCCN2CCC(c3ccccc3)CC2)C1c1ccc([N+](=O)[O-])cc1` (stereo not shown) (as salt: hydrochloride) (hydrate or solvate) [Example 65, 2-(Furan-3-yl)-1,4-dihydro-5-methoxycarbonyl-6-methyl-4-(4-nitrophenyl)-5-{N-[3-(4-phenylpiperidin-1-yl)propyl]}carboxamidopyridine hydrochloride hydrate] stands 205 to 210 °C (dec.); under `COC(=O)C1=C(C)NC(C)=C(C(=O)NCCCN2CCc3ccccc3C2)C1c1ccc([N+](=O)[O-])cc1` (stereo not shown) (as salt: hydrochloride) (hydrate or solvate) [Example 59, 1,4-Dihydro-5-{N-[3-(1,2,3,4-tetrahydroisoquinolin-2-yl)propyl]}carboxamido-3-methoxycarbonyl-2,6-dimethyl-4-(4-nitrophenyl)pyridine hydrochloride hydrate], 145 to 146 °C.
To `COC(=O)C1=C(C)NC(C)=C(C(=O)NCCCCN2CCC(c3ccccc3)CC2)C1c1ccc([N+](=O)[O-])cc1` (stereo not shown) (as salt: hydrochloride) (hydrate or solvate) [Example 3, 1,4-Dihydro-3-methoxycarbonyl-2,6-dimethyl-4-(4-nitrophenyl)-5-{N-[4-(4-phenylpiperidin-1-yl)butyl]}carbozamidopyridine hydrochloride hydrate] belongs 136 to 137 °C; to `COC(=O)C1=C(C)NC(C)=C(C(=O)N(C)CCCN2CCC(c3ccccc3)(c3ccccc3)CC2)C1c1ccc([N+](=O)[O-])cc1` (stereo not shown) (as salt: hydrochloride) (hydrate or solvate) [Example 46, hydrochloride hemihydrate], 179 to 180 °C.
`CCC1=C(C(N)=O)C(c2ccc([N+](=O)[O-])cc2)C(C(=O)NCCCN2CCC(c3ccccc3)(c3ccccc3)CC2)=C(COCCN=[N+]=[N-])N1` (stereo not shown) registered a melting point of 88 to 93 °C.
On to `CCC1=C(C(=O)NCCCN2CCC(c3ccccc3)(c3ccccc3)CC2)C(c2ccc([N+](=O)[O-])cc2)C(C(N)=O)=C(C)N1` (stereo not shown) (as salt: hydrochloride) [Example 81, 5-carboxamido-2-ethyl-1,4-dihydro-6-methyl-4-(4-nitro)phenyl-3-(N-(3-(4,4-diphenylpiperidin-1-yl)propyl))carboxamidopyridine hydrochloride], for which the melting point was 243 to 248 °C (dec.).
To `CCOC(=O)C1=C(CC(=O)NCCCN2CCC(c3ccccc3)(c3ccccc3)CC2)NC(C)=C(C(=O)OC)C1c1ccc([N+](=O)[O-])cc1` (stereo not shown) (as salt: fumarate) [Example 89, 3-Ethoxycarbonyl-1,4-dihydro-5-methoxycarbonyl-6-methyl-4-(4-nitro)phenyl-2-(N-(3-(4,4,-diphenylpiperidin-1-yl)propyl)carboxamido)methylpyridine, fumarate salt] belongs 134 to 137 °C.
To `CC(=O)C1=C(C)NC(C)=C(C(=O)NCCCN2CCC(c3ccccc3)(c3ccccc3)CC2)C1c1ccc([N+](=O)[O-])cc1` (stereo not shown) (as salt: hydrochloride) (hydrate or solvate) [Example 47, 5-Acetyl-1,4-dihydro-2,6-dimethyl-4-(4-nitrophenyl)-3-{N-[3-(4,4-diphenylpiperidin-1-yl)propyl]}carboxamidopyridine] belongs 173 to 174 °C; to `CCC1=C(C(N)=O)C(c2ccc([N+](=O)[O-])cc2)C(C(=O)NCCCN2CCC(C)(c3ccccc3)CC2)=C(CC)N1` (stereo not shown) (as salt: hydrochloride) (hydrate or solvate) [Example 106, 5-Carboxamido-2,6-diethyl-1,4-dihydro-3-{N-[3-(4-Methyl-4-phenylpiperidin-1-yl)propyl]}carboxamido-4-(4-nitrophenyl)pyridine hydrochloride hydrate], 166 °C (dec.); to `COC(=O)C1=C(C)N(C)C(C)=C(C(=O)OCCCN2CCC(c3ccccc3)(c3ccccc3)CC2)C1c1ccc([N+](=O)[O-])cc1.Cl.O` (stereo not shown) (hydrate or solvate) [Example 92, 1,4-Dihydro-5-methoxycarbonyl-1,2,6-trimethyl-4-(4-nitrophenyl)-3-[3-(4,4-diphenylpiperidin-1-yl)propoxy]carbonylpyridine hydrochloride hydrate], 127 to 128 °C.

The term melting point denotes the temperature, or range, at which the solid turns liquid.

Source of the values: patent publication US6608086B2, “Dihydropyridines and new uses thereof” (Synaptic Pharmaceutical Corporation, priority 1993, dated 2003).
